Consider two molecules from US8258123B2, “C-19 steroids for cosmetic and further uses” (ErlaCos GmbH, priority 2007, dated 2012).

Entries after “also recorded” stand apart in the source; their conditions may differ.

One data set deals with androgen receptor (AR). As to the kind of experiment: Binding affinity to the androgen receptor against DHT as reference compound. How it is done: The compounds used according to the present invention preferably have a binding affinity to the androgen receptor (AR) higher than DHT; more preferably the binding affinity is high by having affinity specific to AR in a range of IC50≧500 nM, preferably IC50≧100 nM and more preferably IC50≧50 nM, wherein IC50 is defined as the concentration of the compound required to reduce specific binding of a reference compound, 5α-dihydrotestosterone (DHT), by 50%. The IC50-values can be determined by known methods using radioactively labelled DHT as reference compound, for example by a standard dextran-coated charcoal adsorption method as described by Raynaud et al., J. Steroid Biochem. 6, 615-622 (1975), using 1 nM reference concentrations of radiolabeled [^3H]-DHT, or by similar IC50 determination methods described in the literature. Because the concentration of AR in the target cell is very low, typically in the nanomolar range approximately, differences in binding constants to the order contemplated in the present invention are significant.

In data set [1] the test system is 5α-reductase. Description: 5α-reductase inhibition. The data set is classed as biochemical. The text has this: According to the present invention, the use may correspondingly be determined by selecting the C-19 steroid compound having the aforementioned effects or properties (iii) to (vi) alone or in combination. These effects or properties (iii) to (vi) can be measured by correspondingly known methods. For example, 5α-reductase activity can be measured by a method described by Mitamura et al., Analytical Sciences 21, 1241-1244 (2005). The use according to the present invention may be further determined by a suitable administrated amount of the compound, and by an appropriate application condition, such as type of user/patient, or type of target site or organ enabling the aforementioned effects or properties (iii) to (vi) alone or in combination.

The test system of data set [2] is skin over the predilection areas of cellulite. As to the kind of experiment: Topical treatment of the skin over the predilection areas of cellulite. Format: in vivo. The text has this:
The border between the two layers is made up of collagen fibres. Strengthening this border by increasing its collagen content by stimulating the fibroblasts to produce more collagen leads to a marked improvement of the appearance of cellulite.

Data set [3] deals with apocrine sweat glands in the axilla. As to the kind of experiment: Topical application to the axilla, body odour. The data set is classed as in vivo. The text has this: (§1) Not only in theory but also in practice the compounds of the present invention and in particular 4-OHT and its related analogous compounds are the ideal anabolic substances. […] This can be deduced from three different topical applications to the skin.
The majority of glands relevant for body odor are situated in the subcutaneous tissue. It is therefore difficult to apply effective substances directly. To this end a substance is preferably included facilitating the penetration into the skin.

The subject of another data set is sebaceous glands. Description: Topical application to the face and other acne-prone skin areas. The data set is classed as in vivo.
Text: as §1

The next data set deals with hair follicles. Description: Topical treatment of body skin areas, hair growth. Format: in vivo. The text has this: The situation in the body regions other than the scalp however is different. Sometimes hair growing excessively on other parts of the body is a nuisance. They are conventionally removed by depilation or epilation. Hot wax epilation restores the growth of hair in many dorming hair follicles (telogen hair) thereby increasing the frequency and painfulness of hot wax epilation. Pubic and axillary hair is sparse or absent in CAIS. Corresponding cell cultures contain as androgen predominantly testosterone and only traces of DHT. Growth of unwanted hair in the corresponding body regions cannot be prevented by blocking of 5α-reductase. According to the present invention, this is possible by blocking the androgen receptor against DHT. In almost all hair follicles (with the exception of scalp, pubic and axillary hair) specific cells of the dermal papilla are driven by DHT to promote hair growth.

A further data set has as its system striae. Description: Topical treatment of striae. Format: in vivo. As to conditions: suitable formulation containing 4-OHT. The source says: Striae have also been treated according to the invention with a suitable formulation containing 4-OHT. […] Whereas striae rubrae are more disturbing on a fair skin striae albae are a considerable problem for dark skin.

The test system of data set [4] is 5α-reductase. Description: Reduction by 5α-reductase.
The next data set has as its target T1, aromatase (Homo sapiens, UniProt P11511).
T1 sequence (P11511 1-503): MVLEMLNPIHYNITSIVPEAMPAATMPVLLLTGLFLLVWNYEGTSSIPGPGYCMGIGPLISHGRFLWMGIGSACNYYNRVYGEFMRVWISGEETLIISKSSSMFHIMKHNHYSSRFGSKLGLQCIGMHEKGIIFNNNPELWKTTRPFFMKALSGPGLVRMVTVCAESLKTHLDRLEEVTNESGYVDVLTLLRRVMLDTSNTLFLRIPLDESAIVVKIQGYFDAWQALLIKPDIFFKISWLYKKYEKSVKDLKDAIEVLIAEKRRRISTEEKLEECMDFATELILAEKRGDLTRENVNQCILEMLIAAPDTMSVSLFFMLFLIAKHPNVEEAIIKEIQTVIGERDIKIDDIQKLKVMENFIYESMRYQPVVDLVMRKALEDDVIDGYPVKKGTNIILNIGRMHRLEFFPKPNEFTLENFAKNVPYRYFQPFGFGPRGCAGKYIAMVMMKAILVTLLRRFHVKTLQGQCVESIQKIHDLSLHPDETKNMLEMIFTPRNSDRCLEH
As to the kind of experiment: Aromatization by aromatase.

A further data set deals with forehead skin. As to conditions: applied to the forehead skin of patients with acne, 1% solution; cited from earlier work.
The conditions of data set [5]: loaded to solid lipid nanoparticles; cited from earlier work.

For the molecule `C[C@]12CC[C@H]3[C@@H](CCC4=C(O)C(=O)CC[C@@]43C)[C@@H]1CC[C@@H]2O` [4-OHT, 4,17β-dihydroxyandrost-4-en-3-one], the “binding affinity to the AR compared with DHT” value in the data set on androgen receptor (AR) is “higher affinity to the AR than DHT”. In addition, in the data set on 5α-reductase [1], the “inhibition of 5α-reductase” value was “able to inhibit this enzyme (probably both isoforms)”. Moreover, the “adipose tissue / adipocytes” value in data set [2] (topical) was “marked diminution and shrinkage of the adipocytes; also recorded: shrinkage of adipose tissue”. Further, the “topical formulation compared with 4-OHA” value in [2] (topical formulation, collagen content of the skin) is “superior than 4-OHA”. Besides, the “solidification of the skin” value in [2] (topical preparation, within four weeks) is “considerable solidification of the skin”. For the same molecule, the “concentration of collagen fibres” value in [2] (topical, skin areas over the buttocks) is reported as “anabolically increases the concentration of collagen fibres”. Moreover, the “androgenic effect after application to the skin” value in [2] (topical, hair growth or pimples) is on record as “no androgenic effect whatsoever could be observed”. In data set [3] (combination with dimethyl isosorbide (Arlasolve DMI)), the “effect on body odor of the combination with a penetration enhancer” value is on record as “Optimal results”. The “androgen dependent production of volatile fatty acids responsible for body odour” value in data set [3] (topical, axilla) is on record as “immediately prevents the androgen dependent production of volatile fatty acids”. For the same molecule, the “size and capability of sebaceous glands” value in the data set with sebaceous glands is “reduces size and capability of sebaceous glands”. The “type of hair produced by the follicles” value with hair follicles (after six months) is recorded as “most of the follicles are producing solely vellous hair”. Further, the “growth of body hairs” value in the data set on hair follicles (body regions other than scalp) was “grow slower and less dense and in addition thinner and blonder”. In addition, in the data set with striae, the “striae rubrae and striae albae” value was “makes them disappear”; the “thickness of the skin” value was “increasing thickness of the skin”. Further, the 5α-reduction result in the data set on 5α-reductase [4] was “escapes aromatization or 5α-reduction”. On aromatase, the aromatization entry was “escapes aromatization or 5α-reduction”.
On to `CC(=O)O[C@]1(C(C)=O)CC[C@H]2[C@@H]3C=C(Cl)C4=CC(=O)[C@@H]5C[C@@H]5[C@]4(C)[C@H]3CC[C@@]21C` [Cyproterone acetate, cyproterone acetate], for which the sebum excretion rate entry with forehead skin is given as “not able to reduce the sebum excretion rate”. The “increase in CPA absorption by the skin” value in [5] is listed as 2-3 fold.
